Our source for the Ki values is ChEMBL document CHEMBL1142790, “Carbonic anhydrase inhibitors: inhibition of the transmembrane isozyme XIV with sulfonamides” (Bioorg Med Chem Lett, 2005).

The Ki is a dissociation constant, usually derived from enzyme kinetics or from competition with a known ligand. Low values mean a stronger hold on the target, high ones a looser hold on the target.

One experiment has as its target Carbonic anhydrase 14 (Homo sapiens, UniProt Q9ULX7).
The target in a further experiment is Carbonic anhydrase 12 (Homo sapiens, UniProt O43570).
Chain of Carbonic anhydrase 12 (O43570 whole entry): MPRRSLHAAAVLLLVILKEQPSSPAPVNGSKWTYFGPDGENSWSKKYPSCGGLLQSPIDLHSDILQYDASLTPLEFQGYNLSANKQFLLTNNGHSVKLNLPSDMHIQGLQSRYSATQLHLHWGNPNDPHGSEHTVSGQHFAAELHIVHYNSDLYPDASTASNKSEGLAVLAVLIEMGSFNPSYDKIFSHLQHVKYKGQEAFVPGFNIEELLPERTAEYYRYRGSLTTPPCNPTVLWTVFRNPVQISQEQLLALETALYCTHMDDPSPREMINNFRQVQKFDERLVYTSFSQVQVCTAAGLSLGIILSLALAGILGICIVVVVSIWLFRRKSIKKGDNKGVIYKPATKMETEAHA

Molecules are shown by their SMILES.

Chain of Carbonic anhydrase 14 (Q9ULX7 whole entry): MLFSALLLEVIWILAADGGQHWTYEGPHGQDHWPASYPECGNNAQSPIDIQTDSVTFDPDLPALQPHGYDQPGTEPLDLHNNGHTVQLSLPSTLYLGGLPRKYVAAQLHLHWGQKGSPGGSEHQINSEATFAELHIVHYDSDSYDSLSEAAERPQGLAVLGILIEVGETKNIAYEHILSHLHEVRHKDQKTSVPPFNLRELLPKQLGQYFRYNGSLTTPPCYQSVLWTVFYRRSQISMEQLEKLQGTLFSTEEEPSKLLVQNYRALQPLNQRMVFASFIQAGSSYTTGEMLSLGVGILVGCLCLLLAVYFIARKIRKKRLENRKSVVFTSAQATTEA

`NS(=O)(=O)c1ccc(CO)cc1` registered a Ki at Carbonic anhydrase 14 of 3840 nM.
On the same count and under the same terms, under `CCN[C@H]1CN(CCCOC)S(=O)(=O)c2sc(S(N)(=O)=O)cc21` [BRINZOLAMIDE] stands 24 nM.
Consider `NNc1ccc(S(N)(=O)=O)cc1`, for which the values for the inhibition constant Ki on Carbonic anhydrase 14 and at Carbonic anhydrase 12 were 1450 nM and 11 nM, respectively.
Molecule `Nc1ccc(S(N)(=O)=O)cc1Br` gave a Ki at Carbonic anhydrase 14 of 15 nM.
For the molecule `Nc1nccc(Nc2ccc(S(N)(=O)=O)cc2)n1`, the inhibition constant Ki at Carbonic anhydrase 14 turned out to be 89 nM.
The molecule `Nc1ccc(S(=O)(=O)Nc2nnc(S(N)(=O)=O)s2)cc1` had an inhibition constant (Ki) on Carbonic anhydrase 14 of 13 nM.
For the molecule `NS(=O)(=O)c1ccc(C(=O)O)cc1` [CARZENIDE], affinity at Carbonic anhydrase 14 was put at a Ki of 780 nM.
For the molecule `Nc1ccccc1S(N)(=O)=O`, the Ki was 6500 nM at Carbonic anhydrase 14 and 85 nM on Carbonic anhydrase 12.
Regarding `Nc1nnc(S(N)(=O)=O)s1`, the inhibition constant (Ki) at Carbonic anhydrase 14 came out at 280 nM.
Same read-out and setting: for `Nc1ccc(S(N)(=O)=O)cc1F` the value was 180 nM; for `NS(=O)(=O)c1ccc(CCO)cc1`, 3260 nM; for `Nc1ccc(S(N)(=O)=O)cc1Cl`, 21 nM.
The molecule `Nc1ccc(S(=O)(=O)NCCc2ccc(S(N)(=O)=O)cc2)cc1` showed a Ki on Carbonic anhydrase 14 of 76 nM.
Take `Nc1cccc(S(N)(=O)=O)c1`: the Ki was 4800 nM at Carbonic anhydrase 14 and 125 nM at Carbonic anhydrase 12.
In the case of `Nc1ccc(S(N)(=O)=O)cc1` [SULFANILAMIDE], the inhibitory constant (Ki) on Carbonic anhydrase 14 came out at 5400 nM. That is a single-digit micromolar value.
On to `Cn1nc(S(N)(=O)=O)sc1=N`, for which the affinity at Carbonic anhydrase 14 corresponds to a Ki of 245 nM.
Still for that read-out and setting: for `NCc1ccc(S(N)(=O)=O)cc1` [MAFENIDE] the value was 3200 nM.
